The NIST ThermoML archive (doi:10.1021/je900387e)
± gives the expanded uncertainty stated by the source.

Test: xn = mol fraction of the nth substance listed
Settings: Liquid, Pycnometric method

Cn1ccnc1 [1-methylimidazole] + O=C=O
mass density [kg/m3]
Settings | 332.4 K | 337.4 K
13050 kPa, x1 = 0.0102 | – | 568 ± 4
13150 kPa, x1 = 0.0102 | – | 576 ± 4
13270 kPa, x1 = 0.0102 | – | 584 ± 4
13350 kPa, x1 = 0.0102 | 600 ± 4 | –
13370 kPa, x1 = 0.0102 | – | 593 ± 4
13490 kPa, x1 = 0.0102 | – | 601 ± 4
13550 kPa, x1 = 0.0247 | 668 ± 4 | –
13560 kPa, x1 = 0.0102 | 612 ± 4 | –
13620 kPa, x1 = 0.0102 | – | 610 ± 4
13730 kPa, x1 = 0.0247 | 675 ± 4 | –
13770 kPa, x1 = 0.0102 | – | 619 ± 4
13790 kPa, x1 = 0.0102 | 623 ± 4 | –
13890 kPa, x1 = 0.0247 | 681 ± 4 | –
13910 kPa, x1 = 0.0102 | – | 628 ± 4
13960 kPa, x1 = 0.0247 | 684 ± 4 | –
14040 kPa, x1 = 0.0102 | 636 ± 4 | –
14080 kPa, x1 = 0.0102 | – | 638 ± 4
14140 kPa, x1 = 0.0247 | 690 ± 4 | –
14240 kPa, x1 = 0.0102 | – | 648 ± 4
14320 kPa, x1 = 0.0102 | 649 ± 4 | –
14330 kPa, x1 = 0.0247 | 696 ± 4 | –
14430 kPa, x1 = 0.0102 | – | 658 ± 4
14490 kPa, x1 = 0.0247 | – | 650 ± 4
14520 kPa, x1 = 0.0247 | 703 ± 4 | –
14560 kPa, x1 = 0.0247 | – | 653 ± 4
14630 kPa, x1 = 0.0102 | – | 669 ± 4
14640 kPa, x1 = 0.0102 | 663 ± 4 | –
14660 kPa, x1 = 0.0247 | – | 658 ± 4
14740 kPa, x1 = 0.0247 | 709 ± 4 | –
14780 kPa, x1 = 0.0247 | – | 662 ± 4
14850 kPa, x1 = 0.0102 | – | 680 ± 4
14900 kPa, x1 = 0.0247 | – | 666 ± 4
14970 kPa, x1 = 0.0247 | 716 ± 4 | –
15020 kPa, x1 = 0.0247 | – | 671 ± 4
15030 kPa, x1 = 0.0102 | 677 ± 4 | –
15080 kPa, x1 = 0.0102 | – | 691 ± 4
15140 kPa, x1 = 0.0247 | – | 675 ± 4
15220 kPa, x1 = 0.0247 | 723 ± 4 | –
15270 kPa, x1 = 0.0247 | – | 680 ± 4
15350 kPa, x1 = 0.0102 | – | 703 ± 4
15420 kPa, x1 = 0.0247 | – | 684 ± 4
15450 kPa, x1 = 0.0487 | 779 ± 4 | –
15480 kPa, x1 = 0.0102 | 692 ± 4 | –
15480 kPa, x1 = 0.0247 | 730 ± 4 | –
15560 kPa, x1 = 0.0247 | – | 689 ± 4
15710 kPa, x1 = 0.0487 | 784 ± 4 | –
15730 kPa, x1 = 0.0247 | – | 693 ± 4
15740 kPa, x1 = 0.0102 | – | 719 ± 4
15750 kPa, x1 = 0.0247 | 737 ± 4 | –
15880 kPa, x1 = 0.0247 | – | 698 ± 4
15920 kPa, x1 = 0.0487 | 789 ± 4 | –
15960 kPa, x1 = 0.0247 | 742 ± 4 | –
15970 kPa, x1 = 0.0102 | 707 ± 4 | –
16050 kPa, x1 = 0.0247 | – | 703 ± 4
16080 kPa, x1 = 0.0102 | – | 732 ± 4
16130 kPa, x1 = 0.0487 | 794 ± 4 | –
16190 kPa, x1 = 0.0247 | 747 ± 4 | –
16230 kPa, x1 = 0.0247 | – | 708 ± 4
16260 kPa, x1 = 0.0487 | 797 ± 4 | –
16390 kPa, x1 = 0.0487 | 799 ± 4 | –
16410 kPa, x1 = 0.0247 | – | 713 ± 4
16430 kPa, x1 = 0.0247 | 752 ± 4 | –
16450 kPa, x1 = 0.0102 | – | 745 ± 4
16520 kPa, x1 = 0.0487 | 801 ± 4 | –
16570 kPa, x1 = 0.0102 | 723 ± 4 | –
16600 kPa, x1 = 0.0487 | – | 768 ± 4
16610 kPa, x1 = 0.0247 | – | 717 ± 4
16640 kPa, x1 = 0.0487 | – | 769 ± 4
16650 kPa, x1 = 0.0487 | 804 ± 4 | –
16720 kPa, x1 = 0.0247 | 758 ± 4 | –
16730 kPa, x1 = 0.0487 | – | 770 ± 4
16830 kPa, x1 = 0.0487 | 806 ± 4 | –
16840 kPa, x1 = 0.0102 | – | 759 ± 4
16850 kPa, x1 = 0.0487 | – | 773 ± 4
16890 kPa, x1 = 0.0247 | – | 724 ± 4
16910 kPa, x1 = 0.0247 | 762 ± 4 | –
16960 kPa, x1 = 0.0487 | – | 775 ± 4
16970 kPa, x1 = 0.0487 | 809 ± 4 | –
17070 kPa, x1 = 0.0487 | – | 777 ± 4
17090 kPa, x1 = 0.0247 | 766 ± 4 | –
17130 kPa, x1 = 0.0487 | 811 ± 4 | –
17170 kPa, x1 = 0.0487 | – | 780 ± 4
17190 kPa, x1 = 0.0247 | – | 731 ± 4
17260 kPa, x1 = 0.0102 | 740 ± 4 | –
17260 kPa, x1 = 0.0487 | 814 ± 4 | –
17290 kPa, x1 = 0.0487 | – | 782 ± 4
17300 kPa, x1 = 0.0102 | – | 773 ± 4
17300 kPa, x1 = 0.0247 | 770 ± 4 | –
17410 kPa, x1 = 0.0487 | – | 784 ± 4
17440 kPa, x1 = 0.0487 | 817 ± 4 | –
17450 kPa, x1 = 0.0247 | – | 737 ± 4
17510 kPa, x1 = 0.0247 | 774 ± 4 | –
17520 kPa, x1 = 0.1024 | 890 ± 4 | –
17560 kPa, x1 = 0.0487 | – | 787 ± 4
17590 kPa, x1 = 0.0487 | 819 ± 4 | –
17680 kPa, x1 = 0.0247 | – | 742 ± 4
17680 kPa, x1 = 0.0487 | – | 789 ± 4
17680 kPa, x1 = 0.1024 | 892 ± 4 | –
17730 kPa, x1 = 0.1024 | 892 ± 4 | –
17750 kPa, x1 = 0.0487 | 821 ± 4 | –
17800 kPa, x1 = 0.0247 | 779 ± 4 | –
17800 kPa, x1 = 0.1024 | 893 ± 4 | –
17810 kPa, x1 = 0.0487 | – | 791 ± 4
17820 kPa, x1 = 0.0102 | – | 788 ± 4
17890 kPa, x1 = 0.1024 | 894 ± 4 | –
17920 kPa, x1 = 0.0487 | 824 ± 4 | –
17940 kPa, x1 = 0.0487 | – | 794 ± 4
17960 kPa, x1 = 0.1024 | 895 ± 4 | –
18040 kPa, x1 = 0.1024 | 896 ± 4 | –
18060 kPa, x1 = 0.0102 | 757 ± 4 | –
18060 kPa, x1 = 0.0247 | – | 749 ± 4
18090 kPa, x1 = 0.0487 | – | 797 ± 4
18090 kPa, x1 = 0.1024 | 896 ± 4 | –
18120 kPa, x1 = 0.0487 | 827 ± 4 | –
18150 kPa, x1 = 0.1024 | 897 ± 4 | –
18200 kPa, x1 = 0.0102 | – | 798 ± 4
18200 kPa, x1 = 0.1024 | 897 ± 4 | –
18210 kPa, x1 = 0.0487 | – | 799 ± 4
18250 kPa, x1 = 0.1024 | 898 ± 4 | –
18280 kPa, x1 = 0.0487 | 829 ± 4 | –
18310 kPa, x1 = 0.1024 | 899 ± 4 | –
18350 kPa, x1 = 0.0487 | – | 800 ± 4
18400 kPa, x1 = 0.1024 | 900 ± 4 | –
18470 kPa, x1 = 0.1024 | 900 ± 4 | –
18480 kPa, x1 = 0.0487 | 832 ± 4 | –
18510 kPa, x1 = 0.0487 | – | 804 ± 4
18530 kPa, x1 = 0.1024 | 901 ± 4 | –
18580 kPa, x1 = 0.1024 | 901 ± 4 | –
18610 kPa, x1 = 0.0102 | – | 808 ± 4
18620 kPa, x1 = 0.0102 | 769 ± 4 | –
18620 kPa, x1 = 0.1024 | 902 ± 4 | –
18670 kPa, x1 = 0.0487 | 835 ± 4 | 806 ± 4
18690 kPa, x1 = 0.1024 | 902 ± 4 | –
18750 kPa, x1 = 0.1024 | 903 ± 4 | –
18810 kPa, x1 = 0.0102 | – | 813 ± 4
18820 kPa, x1 = 0.0487 | – | 809 ± 4
18860 kPa, x1 = 0.0102 | 773 ± 4 | –
18860 kPa, x1 = 0.0487 | 837 ± 4 | –
18860 kPa, x1 = 0.1024 | 904 ± 4 | –
18940 kPa, x1 = 0.1024 | 905 ± 4 | –
18990 kPa, x1 = 0.0487 | – | 811 ± 4
19040 kPa, x1 = 0.0487 | 840 ± 4 | –
